Results reported in patent publication US20170122958A1, “Enzymes Functional Probes” (University of Dundee, priority 2013, published 2017).
pKd: −log10 of the molar value. “Also recorded” adds a separate entry of the source. Where two headings read alike, the source gives them in different places.

Assays:
Brd2(2)*(Trp370Phe) [1] = biological target: T1, Brd2(2)*(Trp370Phe) (Homo sapiens, UniProt P25440, W370F); test: ITC reverse titration of protein into compound; type: binding
T1 construct: Plasmids of the eight single BET bromodomain constructs Brd2(1), Brd2(2), Brd3(1), Brd3(2); His6 (N); made in house; host or cells: E. coli BL21(DE3)
T1 sequence (P25440 344-453 W370F limits assumed): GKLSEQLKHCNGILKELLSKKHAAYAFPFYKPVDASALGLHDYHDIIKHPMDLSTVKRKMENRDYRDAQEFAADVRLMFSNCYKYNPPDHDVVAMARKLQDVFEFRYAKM
Protocol: For this reason, these molecules were not selected for further experimentation. […] Results can be seen in FIG. 7.
(§1) ITC experiments were carried out on a ITC200 instrument from MicroCal™ Experiments were conducted at 3 different temperatures 15° C., 25° C. and 30° C., while stirring at 1000 rpm. Buffers of proteins, peptide and compounds were matched to 20 mM HEPES pH 7.5 at 25° C. and 100 mM NaCl. Frozen protein was buffer exchanged as described for the DSF experiments. Each titration comprised 1 initial injection of 0.4 μl lasting 0.8 s, followed by 19 injections of 2 μl lasting 4 s each at 2 min intervals. The initial injection was discarded during data analysis. Standard and reverse titrations were conducted depending on the binding partners.
Reverse titrations were conducted to test the binding of the known ligands and the novel chemical probes to the wild types and the mutants. Experiments were carried out either at 25° C. or 30° C. […]
(§2) All the data was fitted to a single binding site model using the Microcal LLC ITC200 Origin software provided by the manufacturer to yield enthalpies of binding (ΔH) and binding constants (Kas). Further thermodynamic parameters were calculated from these values (changes in entropy ΔS, changes in free energy AG and dissociation constants (Kds)).

Brd2(2) [2] = biological target: T2, Brd2(2) (Homo sapiens, UniProt P25440); test: ITC reverse titration of protein into compound; type: binding; conditions: ITC 25° C.
T2 construct: Plasmids of the eight single BET bromodomain constructs Brd2(1), Brd2(2), Brd3(1), Brd3(2); His6 (N); made in house; host or cells: E. coli BL21(DE3)
T2 sequence (P25440 344-453 limits assumed): as the sequence (P25440 344-453 W370F limits assumed) above, with F27W counted along it
Protocol: as §1
(§3) Reverse titrations were conducted to test the binding of the known ligands and the novel chemical probes to the wild types and the mutants. Experiments were carried out either at 25° C. or 30° C. […] In cases where the compound was solubilized in dimethyl sulfoxide, DMSO concentration was adjusted to 1% both in the syringe and in the cell.
as §2

Brd2(1)*(Trp097Phe) = biological target: T3, Brd2(1)*(Trp097Phe) (Homo sapiens, UniProt P25440, W97F); test: DSF thermal shift; type: binding; conditions: mutant
T3 construct: Plasmids of the eight single BET bromodomain constructs Brd2(1), Brd2(2), Brd3(1), Brd3(2); His6 (N); made in house; host or cells: E. coli BL21(DE3)
T3 sequence (P25440 74-180 W97F limits assumed): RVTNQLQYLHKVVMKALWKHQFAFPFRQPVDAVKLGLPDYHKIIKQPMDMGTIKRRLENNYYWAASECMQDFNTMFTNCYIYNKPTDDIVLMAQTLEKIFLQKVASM

Brd2(2) [3] = biological target: T2, Brd2(2); test: DSF thermal shift; type: binding; conditions: wild type
Brd2(2)*(Trp370Phe) [4] = biological target: T1, Brd2(2)*(Trp370Phe); test: DSF thermal shift; type: binding; conditions: mutant
Brd2(1)*(Trp097His) = biological target: T4, Brd2(1)*(Trp097His) (Homo sapiens, UniProt P25440, W97H); test: DSF thermal shift; type: binding; conditions: mutant
T4 construct: Plasmids of the eight single BET bromodomain constructs Brd2(1), Brd2(2), Brd3(1), Brd3(2); His6 (N); made in house; host or cells: E. coli BL21(DE3)
T4 sequence (P25440 74-180 W97H limits assumed): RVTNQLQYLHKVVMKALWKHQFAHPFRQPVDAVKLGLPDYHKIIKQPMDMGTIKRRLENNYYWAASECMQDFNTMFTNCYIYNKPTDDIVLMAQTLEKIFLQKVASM

Brd2(2)*(Trp370His) = biological target: T5, Brd2(2)*(Trp370His) (Homo sapiens, UniProt P25440, W370H); test: DSF thermal shift; type: binding; conditions: mutant
T5 construct: Plasmids of the eight single BET bromodomain constructs Brd2(1), Brd2(2), Brd3(1), Brd3(2); His6 (N); made in house; host or cells: E. coli BL21(DE3)
T5 sequence (P25440 344-453 W370H limits assumed): as the sequence (P25440 344-453 W370F limits assumed) above, with F27H counted along it

Brd2(1) [5] = biological target: T6, Brd2(1) (Homo sapiens, UniProt P25440); test: DSF thermal shift; type: binding; conditions: wild type
T6 construct: Plasmids of the eight single BET bromodomain constructs Brd2(1), Brd2(2), Brd3(1), Brd3(2); His6 (N); made in house; host or cells: E. coli BL21(DE3)
T6 sequence (P25440 74-180 limits assumed): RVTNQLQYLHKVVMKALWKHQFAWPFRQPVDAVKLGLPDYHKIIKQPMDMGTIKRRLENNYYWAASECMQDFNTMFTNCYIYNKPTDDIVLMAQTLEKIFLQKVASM

Brd2(2)*(Val376Ala) = biological target: T7, Brd2(2)*(Val376Ala) (Homo sapiens, UniProt P25440, V376A); test: DSF thermal shift; type: binding; conditions: mutant
T7 construct: Plasmids of the eight single BET bromodomain constructs Brd2(1), Brd2(2), Brd3(1), Brd3(2); His6 (N); made in house; host or cells: E. coli BL21(DE3)
T7 sequence (P25440 344-453 V376A limits assumed): as the sequence (P25440 344-453 W370F limits assumed) above, with F27W, V33A counted along it

Brd2(1)*(Val103-Ala) = biological target: T8, Brd2(1)*(Val103-Ala) (Homo sapiens, UniProt P25440, V103A); test: DSF thermal shift; type: binding; conditions: mutant
T8 construct: Plasmids of the eight single BET bromodomain constructs Brd2(1), Brd2(2), Brd3(1), Brd3(2); His6 (N); made in house; host or cells: E. coli BL21(DE3)
T8 sequence (P25440 74-180 V103A limits assumed): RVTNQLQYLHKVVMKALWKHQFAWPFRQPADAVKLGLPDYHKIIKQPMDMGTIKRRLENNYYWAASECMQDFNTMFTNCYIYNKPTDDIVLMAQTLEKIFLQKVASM

Brd2 wild types = test: DSF thermal shift, pooled statement; type: binding, human; conditions: span over Brd2(1) and Brd2(2)
Protocol: (§4) DSF assays were performed on a LightCycler®480 from Roche or a Mx3005P Real Time PCR machine from Stratagene. Prior to DSF assays, frozen proteins were buffer exchanged using Vivaspin®6 concentrators with a 10 kDa cutoff on a Centrifuge 5430 from Eppendorf at a speed of 6000×g to remove glycerol and to buffer the proteins in 20 mM HEPES pH 7.5 at 25° C. and 100 mM NaCl. SYPRO®Orange from Invitrogen Molecular Probes® was used as a reporter dye to monitor the denaturing process of the proteins. Samples were assayed on a 96-well plate with final protein concentrations of 2 μM for the LightCycler®480 and 6 μM for Mx3005P. […] The temperature was raised with a step of 0.6° C. per minute from 37° C. to 95° C. with the LightCycler®480 collecting 39 measurements per ° C., and 1° C. per minute from 25° C. to 95° C. with Mx3005P, collecting fluorescence readings at the end of each interval. […]
(§5) Collected data was analysed by IGOR Pro 6, a scientific software tool from Wave Metrics, Inc. Analysis was done following the recommendations of Niesen et al.. Fluorescence intensity was plotted as a function of temperature, generating a sigmoidal curve described by a two-state transition from folded to unfolded protein. […]

[6] = test system: Brd2 methionine to alanine mutants; test: DSF thermal shift, pooled statement; type: binding, human; conditions: span over both mutants
Protocol: as §4, §5

Brd2(2)*(Met438-Leu) = biological target: T9, Brd2(2)*(Met438-Leu) (Homo sapiens, UniProt P25440, M438L); test: DSF thermal shift; type: binding; conditions: mutant
T9 construct: Plasmids of the eight single BET bromodomain constructs Brd2(1), Brd2(2), Brd3(1), Brd3(2); His6 (N); made in house; host or cells: E. coli BL21(DE3)
T9 sequence (P25440 344-453 M438L limits assumed): as the sequence (P25440 344-453 W370F limits assumed) above, with F27W, M95L counted along it
How it was run: (§6)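 Proteins buffer-exchanged into 20 mM HEPES pH 7.5, 100 mM NaCl; SYPRO Orange reporter. Protein 2 or 6 µM with compound 10 or 30 µM (histone peptide 100 or 300 µM) on two instruments, ramped from 37 or 25 °C to 95 °C, triplicates. Tm from first-derivative maximum of sigmoidal fits.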

Brd2(2)*(Met438-Ala) [7] = biological target: T10, Brd2(2)*(Met438-Ala) (Homo sapiens, UniProt P25440, M438A); test: DSF thermal shift; type: binding; conditions: mutant
T10 construct: Plasmids of the eight single BET bromodomain constructs Brd2(1), Brd2(2), Brd3(1), Brd3(2); His6 (N); made in house; host or cells: E. coli BL21(DE3)
T10 sequence (P25440 344-453 M438A limits assumed): as the sequence (P25440 344-453 W370F limits assumed) above, with F27W, M95A counted along it
How it was run: as §6

Brd2(1)*(Met165-Leu) = biological target: T11, Brd2(1)*(Met165-Leu) (Homo sapiens, UniProt P25440, M165L); test: DSF thermal shift; type: binding; conditions: mutant
T11 construct: Plasmids of the eight single BET bromodomain constructs Brd2(1), Brd2(2), Brd3(1), Brd3(2); His6 (N); made in house; host or cells: E. coli BL21(DE3)
T11 sequence (P25440 74-180 M165L limits assumed): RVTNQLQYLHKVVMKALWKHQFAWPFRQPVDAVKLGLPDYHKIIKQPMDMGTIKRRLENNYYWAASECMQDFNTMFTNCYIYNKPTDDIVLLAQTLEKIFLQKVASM
How it was run: as §6

Brd2(1)*(Met165Ala) [8] = biological target: T12, Brd2(1)*(Met165Ala) (Homo sapiens, UniProt P25440, M165A); test: DSF thermal shift; type: binding; design: Plasmids of the eight single BET bromodomain constructs Brd2(1), Brd2(2), Brd3(1), Brd3(2); His6 (N); made in house; host or cells: E. coli BL21(DE3); conditions: mutant
T12 sequence (P25440 74-180 M165A limits assumed): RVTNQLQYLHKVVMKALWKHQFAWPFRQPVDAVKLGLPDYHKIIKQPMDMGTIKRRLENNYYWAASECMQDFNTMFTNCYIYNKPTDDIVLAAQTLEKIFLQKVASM
How it was run: as §6

Solubility observations = conditions: observation in words
Brd2(1)*(Met165Ala) [9] = biological target: T12, Brd2(1)*(Met165Ala); test: ITC reverse titration of protein into compound; type: binding; design: Plasmids of the eight single BET bromodomain constructs Brd2(1), Brd2(2), Brd3(1), Brd3(2), Brd4(1), Brd4(2), Brdt(1) and Brdt(2); His6 (N); made in house; host or cells: E. coli BL21(DE3)
Protocol: as §1
Reverse titrations were conducted to test the binding of the known ligands and the novel chemical probes to the wild types and the mutants. Experiments were carried out either at 25° C. or 30° C. For strong binders, a concentration of 150-200 μM of the protein was injected into a solution of 15-20 μM compound. […] In cases where the compound was solubilized in dimethyl sulfoxide, DMSO concentration was adjusted to 1% both in the syringe and in the cell.
as §2

Brd2(2)*(Met438-Ala) [10] = biological target: T10, Brd2(2)*(Met438-Ala); test: ITC reverse titration of protein into compound; type: binding
Protocol: as §1
Reverse titrations were conducted to test the binding of the known ligands and the novel chemical probes to the wild types and the mutants. […]. In cases where the compound was solubilized in dimethyl sulfoxide, DMSO concentration was adjusted to 1% both in the syringe and in the cell.
as §2

Brd2(1) [11] = biological target: T6, Brd2(1); test: ITC reverse titration of protein into compound; type: binding; conditions: ITC 25° C.; read-out: Kd wild type Brd2(1)
Protocol: as §1, §3, §2

COC(=O)CC1N=C(c2cccc3[nH]ccc23)c2cc(OC)ccc2-n2c(C)nnc21 (centres unmarked) [Compound 18]
pKd (Brd2(2)*(Trp370Phe) [1]): ~6.52 | pKd (Brd2(2) [2]; Kd Brd2(2)): ~7.05 | ΔTm Brd2(1)*(Tryp097-Phe) (Brd2(1)*(Trp097Phe)): 1.9 ± 0.5 K | ΔTm Brd2(2) (Brd2(2) [3]): 7.7 ± 0.2 K | ΔTm Brd2(2)*(Tryp370-Phe) (Brd2(2)*(Trp370Phe) [4]): 5.1 ± 0.1 K | ΔTm Brd2(1)*(Tryp097-His) (Brd2(1)*(Trp097His)): 0.6 ± 0.3 K | ΔTm Brd2(2)*(Tryp370-His) (Brd2(2)*(Trp370His)): 2.7 ± 0.4 K | ΔTm Brd2(1) (Brd2(1) [5]): 6.8 ± 0.6 K

CCNC(=O)CC1N=C(c2ccc(Cl)cc2)c2cc(OC)cc(C)c2-n2c(C)nnc21 (centres unmarked) [Compound 19]
ΔTm Brd(2)*(Val376-Ala) (Brd2(2)*(Val376Ala)): 1.3 ± 0.1 K | ΔTm Brd2(2) (Brd2(2) [3]): 3.8 ± 0.1 K | ΔTm Brd2(1)*(Val103-Ala) (Brd2(1)*(Val103-Ala)): 0.4 ± 0.3 K | ΔTm Brd2(1) (Brd2(1) [5]): 0.5 ± 0.2 K

COc1ccc(OC)c(S(=O)(=O)Nc2ccc3c(c2)CN(C)C(=O)N3)c1 [Compound 51, 2,5-dimethoxy-N-(3-methyl-2-oxo-1,2,3,4-tetrahydroquinazolin-6-yl)benzenesulfonamide]
ΔTm wild types of Brd2 (Brd2 wild types): 1-2 °C | ΔTm methionine to alanine mutants of Brd2 [6]: 4.5-6.6 °C | ΔTm Brd2(2)*(Met165-Leu) (Brd2(2)*(Met438-Leu)): 5.2 ± 0.3 K | ΔTm Brd2(2)*(Met165-Ala) (Brd2(2)*(Met438-Ala) [7]): 6.6 ± 0.3 K | ΔTm Brd2(1)*(Met165-Leu) (Brd2(1)*(Met165-Leu)): 2.9 ± 0.2 K | ΔTm Brd2(1)*(Met165-Ala) (Brd2(1)*(Met165Ala) [8]): 4.6 ± 0.2 K | Solubility (Solubility observations): good solubility | Fold higher affinity for mutant than wild type (Brd2(1)*(Met165Ala) [9]; Brd2(1)* methionine to alanine mutant vs wild type Brd2(2), ITC Kd): three-fold higher affinity; also recorded: twelve fold higher affinity | Selectivity for mutant relative to wild type (Brd2(1)*(Met165Ala) [9]; Brd2(1)*(Met165Ala) vs Brd2(1), ITC Kd): six-fold selectivity | pKd (Brd2(1)*(Met165Ala) [9]; ITC 25° C.): ~6.30 | Selectivity for mutant relative to wild type (Brd2(2)*(Met438-Ala) [10]; Brd2(2) methionine to alanine mutant vs Brd2(2), ITC Kd): six fold selectivity | Fold higher affinity for mutant than wild type (Brd2(2)*(Met438-Ala) [10]; Brd2(2)* methionine to alanine mutant vs wild type Brd2(1), ITC Kd): twelve fold higher affinity; also recorded: three-fold higher affinity | pKd (Brd2(2)*(Met438-Ala) [10]; ITC 25° C., read-out: Kd methionine to alanine mutation of Brd2(2)): ~6.59 | pKd (Brd2(2) [2]; read-out: Kd Brd2(2)): ~5.80 | pKd (Brd2(1) [11]): ~5.49 | ΔTm Brd2(2) (Brd2(2) [3]): 2.1 ± 0.3 K | ΔTm Brd2(1) (Brd2(1) [5]): 1.1 ± 0.2 K
